Measured values taken from US20260250317A1, “COMPOUND AND USE OF THE SAME” (JAPAN SCIENCE AND TECHNOLOGY AGENCY, priority 2022, published 2026).
“Also recorded” adds a separate entry of the source. Starred links: 1 amine or outer side, 2 acyl side, 3 side chain; linkers in the order of their positions; H or OH if unused. Non-standard residues stand in square brackets, D forms with d. Residues, ends and D or L forms follow the SMILES beside them. X1 = O=C(C(Cc1ccc(/N=N/c2ccccc2)cc1)N[*:1])[*:2]

Key:
[1] = Photoresponsiveness (UV-vis absorption spectrum after light irradiation); type: physicochemical; conditions: 1 wt % dispersion in D-MEM with 4 mM HEPES, 25° C.; P1: 350 nm / 450 nm; P3: 540 nm / 450 nm
Procedure: The compound (P1) was dispersed in a D-MEM buffer solution including 4 mM HEPES to produce a dispersion liquid including 1 wt % of the compound (P1). This dispersion liquid was placed in a transparent cell having a depth of 1 mm and irradiated with light using a fluorescence microscope (Olympus IX-73). A U-HGLGPS (brightness: 130 W) was used as the light source for the fluorescence microscope and light was irradiated with a brightness output setting of 25%. The absorption spectrum and circular dichroism (CD) spectrum of the dispersion liquid after light irradiation were measured by ultraviolet-visible light spectroscopy. The measurements were performed at room temperature (25° C.).
This dispersion liquid was irradiated with 450 nm or 550 nm light and the absorption spectrum was analyzed by ultraviolet-visible spectroscopy (UV-vis) (JASCO V-650 spectrophotometer). Measurements were performed at room temperature (25° C.).

[2] = Evaluation of droplet stability (phase-contrast microscope); conditions: 1 wt % compound, 5 wt % DEX550k, 5 wt % PEG35k
Procedure: A mixed aqueous solution including 5 wt % dextran (550 kDa; DEX550k), 0.002 wt % rhodamine-DEX550k, and 5 wt % polyethylene glycol (35 kDa; PEG35k) was produced in a microtube. Next, the compound (P1) was added to the mixed aqueous solution to be 1 wt % thereof, dissolved, and stirred for 1 minute using a vortex. Due to this, liquid-liquid phase-separated droplets were produced.
Liquid-liquid phase-separated droplets were produced by the same method as in <Droplet Production Example 1>. After production of the droplets, the droplets were left to stand for 24 hours and the state of the droplets was observed using a phase-contrast microscope.
Liquid-liquid phase-separated droplets were produced by the same method as in <Droplet Production Example 1>. After production of the droplets, the droplets were left to stand for 16 days and the state of the droplets was observed using a phase-contrast microscope.

[3] = Droplet fusion and control by light irradiation
Procedure: A mixed aqueous solution including 5 wt % DEX550k and 5 w % PEG35k was produced in a microtube. Next, the compound (P1) was added to the mixed aqueous solution to be 1 wt % thereof, dissolved, and stirred for 1 minute using a vortex. […] The produced droplets were position-selectively irradiated with 350 nm light for 6 minutes. The droplet dispersion liquid was placed in a transparent cell having a depth of 1 mm and light irradiation was performed using a fluorescence microscope (Olympus IX-73). A U-HGLGPS (brightness: 130 W) was used as the light source for the fluorescence microscope and light was irradiated with a brightness output setting of 25%.
To observe the localization of the compound (P), the compound (P1) was labeled using Cy5. A mixed aqueous solution including 5 wt % dextran (550 kDa; DEX550k) and 5 wt % polyethylene glycol (35 kDa; PEG35k) was produced in a microtube. Next, the Cy5-labeled compound (P1) was added to the mixed aqueous solution to be 1 wt % thereof, dissolved, and stirred for 1 minute using a vortex. […] The droplets were irradiated with 350 nm light for 5 seconds. The droplet dispersion liquid was placed in a transparent cell having a depth of 1 mm and light irradiation was performed using a fluorescence microscope (Olympus IX-73). A U-HGLGPS (brightness: 130 W) was used as the light source for the fluorescence microscope and light was irradiated with a brightness output setting of 25%. Before and after light irradiation, the droplets were observed using a phase-contrast microscope (Olympus IX-73 connected to a phase-contrast light source) and a fluorescence microscope (Olympus IX-73 connected to a fluorescence light source U-HGLGPS).
A mixed aqueous solution including 5 wt % dextran (550 kDa; DEX550k) and 5 wt % polyethylene glycol (35 kDa; PEG35k) was produced in a microtube. Next, the labeled compound (P1) was added to the mixed aqueous solution to be 1 wt % thereof, dissolved, and stirred for 1 minute using a vortex. […] The droplets were subjected to any of the following light irradiation operations (1) to (3). The light irradiation was performed in the same manner as described above. • (1) No light irradiation. • (2) Irradiation with 350 nm light for 5 seconds. • (3) Irradiation with 350 nm light for 5 seconds, followed by irradiation with 550 nm light for 5 seconds.
The droplets were observed under a phase-contrast microscope before and after carrying out the light irradiation operation under the above-described conditions. In (1), an image “before carrying out the light irradiation operation” was taken and then an image “after carrying out the light irradiation operation” was taken within 1 minute. No light irradiation was performed between “before carrying out the light irradiation operation” and “after carrying out the light irradiation operation”. In (2), an image “after carrying out the light irradiation operation” was taken immediately after 5 seconds of irradiation with 350 nm light. In (3), 350 nm light was irradiated for 5 seconds, immediately followed by irradiating 550 nm light for 5 seconds, and an image “after carrying out the light irradiation operation” was taken immediately after the 550 nm light was irradiated for 5 seconds.
A mixed aqueous solution including 5 wt % DEX550k and 5 w % PEG35k was produced in a microtube. Next, the compound (P2) was added to the mixed aqueous solution to be 1 wt % thereof, dissolved, and stirred for 1 minute using a vortex. […] The produced droplets were irradiated with 350 nm light for 5 seconds. The droplet dispersion liquid was placed in a transparent cell having a depth of 1 mm and light irradiation was performed using a fluorescence microscope (Olympus IX-73).

[4] = Rheological evaluation (storage modulus G' and loss modulus G'', rotational rheometer); type: physicochemical; conditions: trans form, 1.0 wt % in D-MEM buffer pH 8.5, incubated 3 days at 37° C. in dark
Procedure: The trans form of the compound (P1) was dispersed in a D-MEM buffer solution (4 mM HEPES, containing 1 wt % NaHCO3, pH 8.5) to produce a dispersion liquid including 1.0 wt % of the compound (P1). This dispersion liquid was incubated for 3 days in a dark place at 37° C. in a 5% CO2 atmosphere. Thereafter, the storage modulus G′ and loss modulus G″ were measured using a rotational rheometer (Malvern Panalytical, Kinexus lab+).
This dispersion liquid was incubated for 3 days in a dark place at 37° C. in a 5% CO2 atmosphere. The storage modulus G′ and loss modulus G″ were then measured using a rotational rheometer (Malvern Panalytical, Kinexus lab+).

[5] = Reversible gel-sol transition by light irradiation (test tube); type: physicochemical
Procedure: The compound (P1) was dispersed in a D-MEM buffer solution (4 mM HEPES, containing 1 wt % NaHCO3, pH 8.5) to produce a dispersion liquid including 1.0 wt % of the compound (P1). The dispersion liquid was placed in a test tube to observe the gel-sol transition caused by light irradiation. Incubation after the start of light irradiation was performed at 37° C. in a 5% CO2 atmosphere.
This dispersion liquid was placed in a test tube to observe the changes in gelation and solation caused by light irradiation. After the start of light irradiation, incubation was performed at 37° C. in a 5% CO2 atmosphere.

[6] = TEM analysis of dispersion liquid; type: physicochemical; conditions: 1.0 wt % dispersion, irradiated with 450 nm light
Procedure: This dispersion liquid was incubated for 3 days in a dark place at 37° C. in a 5% CO2 atmosphere. Thereafter, the dispersion liquid was irradiated with 450 nm light and analyzed with a transmission electron microscope (JEOL JEM-1400).
This dispersion liquid was incubated for 3 days in a dark place at 37° C. in a 5% CO2 atmosphere. Thereafter, the dispersion liquid was irradiated with 450 nm or 550 nm light and absorption spectrum analysis was performed by infrared absorption spectroscopy analysis (IR) (JASCO FTIR-6100) and analysis was performed using a transmission electron microscope (JEOL JEM-1400).

[7] = 1 wt % compound, 350 nm light for 5 seconds

| SMILES | photoisomerization of azobenzene structure on light irradiation [1] | time for which droplets were stably maintained ([2]; left to stand 24 hours) | time after which droplets were still stably maintained ([2]; left to stand 16 days) | change of droplets after 350 nm light [3, 7] | droplet fusion in light irradiated spot ([3]; 1 wt % compound, position-selective 350 nm light for 6 minutes) | change of droplets after 350 nm then 550 nm light ([3]; 1 wt % labeled compound, 350 nm light 5 seconds, then 550 nm light 5 seconds) | change of droplets, no light irradiation ([3]; 1 wt % labeled compound, operation (1) no light irradiation) | state of droplet dispersion liquid before irradiation with 350 nm light ([3]; Cy5-labeled compound, 1 wt %) | state of droplet dispersion liquid after irradiation with 350 nm light ([3]; Cy5-labeled compound, 1 wt %, 350 nm light for 5 seconds) | gel formation (G' versus G'') [4] | state of dispersion liquid at start of light irradiation, cis form ([5]; 1.0 wt % in D-MEM buffer pH 8.5, 0 min) | state of dispersion liquid at start of light irradiation, trans form ([5]; 1.0 wt % in D-MEM buffer pH 8.5, 0 min / before irradiation) | state of trans-form dispersion liquid after 350 nm light ([5]; 1.0 wt %, 350 nm light for 15 minutes, 37° C., 5% CO2) | state of cis-form dispersion liquid after 450 nm light ([5]; 1.0 wt %, 450 nm light for 15 minutes, 37° C., 5% CO2) | structure in TEM image, trans form [6] |
| --- | --- | --- | --- | --- | --- | --- | --- | --- | --- | --- | --- | --- | --- | --- | --- |
| CSCCC(NC(=O)C(CCCNC(=N)N)NC(=O)C(C)NC(=O)C(CC(=O)O)NC(=O)C(Cc1ccc(/N=N/c2ccccc2)cc1)NC(=O)C(CCCNC(=N)N)NC(C)=O)C(=O)NC(CCCNC(=N)N)C(N)=O (stereo not shown) [Compound (P1)] (Ac-R[X1]DARMR-NH2; configuration not given here) | reversibly isomerized from the trans form to the cis form and from the cis form to the trans form | ≥ 24 h | ≥ 16 days | droplets which were larger than before the light irradiation were observed; also recorded: the size of the droplets significantly increased | a larger droplet was formed | the number of droplets decreased and the size of the droplets increased | no change was seen in the size of the droplets | gel state | sol state | a gel was formed | underwent solation | underwent gelation | underwent solation | underwent gelation | formed a structure in a fibrous state |
| CSCCC(NC(=O)C(CCCNC(=N)N)NC(C)=O)C(=O)NC(CC(=O)O)C(=O)NC(C)C(=O)NC(CCCNC(=N)N)C(=O)NC(Cc1ccc(/N=N/c2ccccc2)cc1)C(=O)NC(CCCNC(=N)N)C(N)=O (stereo not shown) [Compound (P2)] (Ac-RMDAR[X1]R-NH2; configuration not given here) | – | – | – | larger droplets were formed | – | – | – | – | – | – | – | – | – | – | – |
